The numbers were not newly measured in patent US20120034285A1, “Mosquito Net with Dinotefuran and PBO for Killing Mosquitoes, Especially Mosquitoes with Pyrethroid Resistance” (priority 2009, published 2012), which cites them from elsewhere.

For data set [1], the system named is mosquito strain VKPR (also termed VKPER) of the An. gambiae species. The note with it: strain with mutation for knockdown-resistance against pyrethroids.
A further data set has as its system Anopheles gambiae. The note with it: in vivo.
A further data set deals with mosquitoes. The note with it: in contrast to pyrethroids; also mentioned in JP 10 139604.
A further data set has as its system cockroaches. The note with it: PBO added as an oxidase inhibitor; Dinotefuran injected into the stomach.
The test system of the next data set is Culex quinquefasciatus. To be noted: in vivo.
The subject of a further data set is Aedes aegypti. The note with it: in vivo.

In the case of `CN/C(=N/CC1CCOC1)N[N+](=O)[O-]` (stereo not drawn) [Dinotefuran], the lethal effect entry (in data set [1]; in the data set with Anopheles gambiae; in the data set on Culex quinquefasciatus; in the data set with Aedes aegypti) was “lethal effect” throughout. The mosquito repellent effect result in the data set with mosquitoes is reported as “does not have a mosquito repellent effect”. Besides, the toxicity on cockroaches entry with cockroaches is listed as “increased toxicity”.
